Assay results from ChEMBL document CHEMBL5726855, “Substituted benzylindazoles for use as Bub1 kinase inhibitors in the treatment of hyperproliferative diseases” (2019).

Target: Mitotic checkpoint serine/threonine-protein kinase BUB1 (Homo sapiens, UniProt O43683)
Assay: To this end, 100-fold concentrated compound solutions (in DMSO) were previously prepared by serial dilution (1:3.4) of 2 mM stocks in a clear low volume 384-well source microtiter plate (Greiner Bio-One, Frickenhausen, Germany), from which 50 nl of compounds were transferred into a black low volume test microtiter plate from the same supplier. […] The resulting mixture (5 μl final volume) was incubated at 22° C. during 60 min., and the reaction was stopped by the addition of 5 μl of an aqueous EDTA-solution (50 mM EDTA, in 100 mM HEPES pH 7.5 and 0.2% (w/v) bovine serum albumin) which also contained the TR-FRET detection reagents (0.2 μM streptavidin-XL665 [Cisbio Bioassays, Codolet, France] and 1 nM anti-phosho-Serine antibody [Merck Millipore, cat. #35-001] and 0.4 nM LANCE EU-W1024 labeled anti-mouse IgG antibody [Perkin-Elmer, product no. AD0077, alternatively a Terbium-cryptate-labeled anti-mouse IgG antibody from Cisbio Bioassays can be used]). The stopped reaction mixture was further incubated 1 h at 22° C. in order to allow the formation of complexes between peptides and detection reagents. Subsequently, the amount of product was evaluated by measurement of the resonance energy transfer from the Eu-chelate-antlbody complex recognizing the Phosphoserlne residue to the streptavidin-XL665 bound to the biotin moiety of the peptide. […] IC50 values were calculated by fitting the normalized inhibition data to a 4-parameter logistic equation (Minimum, Maximum, IC50, Hill; Y=Max+(Min−Max)/(1+(X/IC50)Hill)) using a Bayer-proprietary analysis software.

Mitotic checkpoint serine/threonine-protein kinase BUB1, sequence (O43683 whole entry): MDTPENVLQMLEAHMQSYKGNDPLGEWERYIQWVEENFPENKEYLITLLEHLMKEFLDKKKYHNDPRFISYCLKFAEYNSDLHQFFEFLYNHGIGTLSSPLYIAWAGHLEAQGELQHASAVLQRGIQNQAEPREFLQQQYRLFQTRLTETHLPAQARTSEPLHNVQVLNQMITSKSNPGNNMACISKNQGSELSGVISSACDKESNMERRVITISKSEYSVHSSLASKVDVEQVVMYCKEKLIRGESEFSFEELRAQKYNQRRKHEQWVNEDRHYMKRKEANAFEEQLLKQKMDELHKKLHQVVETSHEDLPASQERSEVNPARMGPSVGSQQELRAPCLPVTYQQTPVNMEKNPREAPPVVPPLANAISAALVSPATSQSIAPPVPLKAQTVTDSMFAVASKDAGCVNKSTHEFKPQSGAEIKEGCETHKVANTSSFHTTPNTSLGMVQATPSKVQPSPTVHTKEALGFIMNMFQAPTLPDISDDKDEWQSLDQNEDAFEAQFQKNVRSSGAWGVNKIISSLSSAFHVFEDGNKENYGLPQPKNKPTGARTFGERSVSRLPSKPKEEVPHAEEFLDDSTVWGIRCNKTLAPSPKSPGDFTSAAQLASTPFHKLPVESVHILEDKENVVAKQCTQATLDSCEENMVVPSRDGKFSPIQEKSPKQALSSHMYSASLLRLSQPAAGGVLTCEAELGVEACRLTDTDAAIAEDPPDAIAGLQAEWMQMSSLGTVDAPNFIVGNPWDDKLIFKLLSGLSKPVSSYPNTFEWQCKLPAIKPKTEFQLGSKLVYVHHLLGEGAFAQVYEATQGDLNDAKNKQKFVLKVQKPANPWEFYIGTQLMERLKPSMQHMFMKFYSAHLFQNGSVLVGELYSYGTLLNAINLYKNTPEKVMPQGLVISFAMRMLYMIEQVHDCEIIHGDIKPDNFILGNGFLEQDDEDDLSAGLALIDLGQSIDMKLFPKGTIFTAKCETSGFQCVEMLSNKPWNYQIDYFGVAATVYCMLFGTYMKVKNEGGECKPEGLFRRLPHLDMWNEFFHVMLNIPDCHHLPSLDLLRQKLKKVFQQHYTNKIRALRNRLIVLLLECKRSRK

Compound	IC50 [nM]
COc1cnc(-c2nn(Cc3c(F)c(F)c(OCC(F)(F)F)c(F)c3F)c3ccccc23)nc1N(Cc1c(F)c(F)c(OCC(F)(F)F)c(F)c1F)c1ccncc1	3200
CCOc1cc(F)c(Cn2nc(-c3ncc(OCCOCCO)c(Nc4ccncc4)n3)c3ccccc32)c(F)c1	7.4
COc1cnc(-c2nn(Cc3ccc(C#N)cc3F)c3ccccc23)nc1N(Cc1ccc(C#N)cc1F)c1ccncc1	1100

The next lines start with the values.

IC50 [nM]	Compound
890	COc1cnc(-c2nn(Cc3c(F)cc(F)cc3F)c3ccccc23)nc1N(Cc1c(F)cc(F)cc1F)c1ccncc1
14	CCOc1cc(F)c(Cn2nc(-c3ncc(OCCSC)c(Nc4ccncc4)n3)c3ccccc32)c(F)c1
